Laboratory results published in PubChem BioAssay AID1963430 (Molecular Pharmacology Branch, DTP, NCI, 2024).

System: 521955-158-R2-J5-PDC complex spheroid growth, % test/control
Test: Anticancer human tumor 521955-158-R2-J5-PDC patient-derived pancreatic carcinoma cell line growth inhibition [Asc]
Details: for IC50: curve of first compound; for viability, T/C: stronger effect = lower value
Outline: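 Tumor cells were grown as complex spheroids with human endothelial cells (HUVEC) and human mesenchymal stem cells as stroma. Agents were tested alone and in combination, in half-log steps down from the clinical Cmax, or from 10 microM where Cmax was unknown.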

[1] = second compound 0.03 µM, first compound 0.00316 µM
[2] = second compound 0.03 µM, first compound 0.01 µM
[3] = second compound 0.03 µM, first compound 0.0316 µM
[4] = second compound 0.03 µM, first compound 0.1 µM
[5] = second compound 0.0949 µM, first compound 0.00316 µM
[6] = second compound 0.0949 µM, first compound 0.01 µM
[7] = second compound 0.0949 µM, first compound 0.0316 µM
[8] = second compound 0.0949 µM, first compound 0.1 µM
[9] = second compound 0.3 µM, first compound 0.00316 µM
[10] = second compound 0.3 µM, first compound 0.01 µM
[11] = second compound 0.3 µM, first compound 0.0316 µM
[12] = second compound 0.3 µM, first compound 0.1 µM
[13] = second compound 0.949 µM, first compound 0.00316 µM
[14] = second compound 0.949 µM, first compound 0.01 µM
[15] = second compound 0.949 µM, first compound 0.0316 µM
[16] = second compound 0.949 µM, first compound 0.1 µM
[17] = second compound 3 µM, first compound 0.00316 µM
[18] = second compound 3 µM, first compound 0.01 µM
[19] = second compound 3 µM, first compound 0.0316 µM
[20] = second compound 3 µM, first compound 0.1 µM
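Note: spheroids exposed to agents for 7 days before readout.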
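Throughout, for viability, T/C: 100% = DMSO vehicle control viability.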

Compound COc1c(OCCCN2CCOCC2)ccc2c3n(c(=NC(=O)c4cnc(N)nc4)nc12)CCN3 + CCN1C(C(=O)NC23CCC(C(=O)O)(CC2)CC3)C(c2cccc(Cl)c2F)C2(C(=O)Nc3cc(Cl)ccc32)C12CCCCC2 has an IC50 (second compound 0.03 µM) of 4.56 nM, an IC50 (second compound 0.0949 µM) of 9.08 nM and an IC50 (second compound 0.3 µM) of 7.14 nM. For the same compound, the IC50 (second compound 0.949 µM) was 10.6 nM, the IC50 (second compound 3 µM) was 30.2 nM and the viability, T/C [1] was 53.5%. For the same compound, the viability, T/C [2] was 43.2%, the viability, T/C [3] was 34.5% and the viability, T/C [4] was 30.3%. The viability, T/C (second compound 0.03 µM, first compound 0.316 µM) was 24.3%, the viability, T/C (second compound 0.03 µM, first compound 1 µM) was 17.3% and the viability, T/C [5] was 61.1%. It also gave a viability, T/C [6] of 47.8%, a viability, T/C [7] of 38.2% and a viability, T/C [8] of 30.3%. It also gave a viability, T/C (second compound 0.0949 µM, first compound 0.316 µM) of 19%, a viability, T/C (second compound 0.0949 µM, first compound 1 µM) of 15.2% and a viability, T/C [9] of 60.2%. The viability, T/C [10] was 40.4%, the viability, T/C [11] was 43.3% and the viability, T/C [12] was 31%. It also gave a viability, T/C (second compound 0.3 µM, first compound 0.316 µM) of 24.2%, a viability, T/C (second compound 0.3 µM, first compound 1 µM) of 23.1% and a viability, T/C [13] of 71.6%. The viability, T/C [14] was 44.7%, the viability, T/C [15] was 40.5% and the viability, T/C [16] was 31.5%. It also gave a viability, T/C (second compound 0.949 µM, first compound 0.316 µM) of 23.2%, a viability, T/C (second compound 0.949 µM, first compound 1 µM) of 15.8% and a viability, T/C [17] of 93.6%. For the same compound, the viability, T/C [18] was 74.2%, the viability, T/C [19] was 43.5% and the viability, T/C [20] was 37.3%. It also gave a viability, T/C (second compound 3 µM, first compound 0.316 µM) of 22.5% and a viability, T/C (second compound 3 µM, first compound 1 µM) of 16.7%.

With NC(=O)C(=Cn1cnc(-c2cc(C(F)(F)F)cc(C(F)(F)F)c2)n1)c1cncnc1 + CCN1C(C(=O)NC23CCC(C(=O)O)(CC2)CC3)C(c2cccc(Cl)c2F)C2(C(=O)Nc3cc(Cl)ccc32)C12CCCCC2 the IC50 (second compound 0.03 µM) was 6.31 nM, the IC50 (second compound 0.0949 µM) was 2.84 nM and the IC50 (second compound 0.3 µM) was 5.68 nM. For the same compound, the IC50 (second compound 0.949 µM) was 6.71 nM, the IC50 (second compound 3 µM) was 10.1 nM and the viability, T/C (second compound 0.03 µM, first compound 0.000949 µM) was 57.6%. It also gave a viability, T/C (second compound 0.03 µM, first compound 0.003 µM) of 62.8%, a viability, T/C (second compound 0.03 µM, first compound 0.00949 µM) of 44.4% and a viability, T/C (second compound 0.03 µM, first compound 0.03 µM) of 34.9%. It also gave a viability, T/C (second compound 0.03 µM, first compound 0.0949 µM) of 30.7%, a viability, T/C (second compound 0.03 µM, first compound 0.3 µM) of 38.5% and a viability, T/C (second compound 0.0949 µM, first compound 0.000949 µM) of 103%. The viability, T/C (second compound 0.0949 µM, first compound 0.003 µM) was 45.5%, the viability, T/C (second compound 0.0949 µM, first compound 0.00949 µM) was 47.2% and the viability, T/C (second compound 0.0949 µM, first compound 0.03 µM) was 41.7%. For the same compound, the viability, T/C (second compound 0.0949 µM, first compound 0.0949 µM) was 33%, the viability, T/C (second compound 0.0949 µM, first compound 0.3 µM) was 36.2% and the viability, T/C (second compound 0.3 µM, first compound 0.000949 µM) was 76.5%. The viability, T/C (second compound 0.3 µM, first compound 0.003 µM) was 51.3%, the viability, T/C (second compound 0.3 µM, first compound 0.00949 µM) was 50.5% and the viability, T/C (second compound 0.3 µM, first compound 0.03 µM) was 38.3%. The viability, T/C (second compound 0.3 µM, first compound 0.0949 µM) was 33.6%, the viability, T/C (second compound 0.3 µM, first compound 0.3 µM) was 32.8% and the viability, T/C (second compound 0.949 µM, first compound 0.000949 µM) was 94.2%. It also gave a viability, T/C (second compound 0.949 µM, first compound 0.003 µM) of 58.1%, a viability, T/C (second compound 0.949 µM, first compound 0.00949 µM) of 47.9% and a viability, T/C (second compound 0.949 µM, first compound 0.03 µM) of 42%. It also gave a viability, T/C (second compound 0.949 µM, first compound 0.0949 µM) of 35.7%, a viability, T/C (second compound 0.949 µM, first compound 0.3 µM) of 43.8% and a viability, T/C (second compound 3 µM, first compound 0.000949 µM) of 109%. For the same compound, the viability, T/C (second compound 3 µM, first compound 0.003 µM) was 75.6%, the viability, T/C (second compound 3 µM, first compound 0.00949 µM) was 53.1% and the viability, T/C (second compound 3 µM, first compound 0.03 µM) was 34.5%. For the same compound, the viability, T/C (second compound 3 µM, first compound 0.0949 µM) was 49.9% and the viability, T/C (second compound 3 µM, first compound 0.3 µM) was 45.4%.

NC1CCC(NC2CC2c2ccccc2)CC1 (stereo not given) + CCN1C(C(=O)NC23CCC(C(=O)O)(CC2)CC3)C(c2cccc(Cl)c2F)C2(C(=O)Nc3cc(Cl)ccc32)C12CCCCC2 showed an IC50 (second compound 0.03 µM) greater than 100 nM, an IC50 (second compound 0.0949 µM) greater than 100 nM and an IC50 (second compound 0.3 µM) greater than 100 nM. It also gave an IC50 (second compound 0.949 µM) greater than 100 nM, an IC50 (second compound 3 µM) greater than 100 nM and a viability, T/C (second compound 0.03 µM, first compound 0.000316 µM) of 59%. The viability, T/C (second compound 0.03 µM, first compound 0.001 µM) was 52.7%, the viability, T/C [1] was 64.8% and the viability, T/C [2] was 59.2%. For the same compound, the viability, T/C [3] was 57.4%, the viability, T/C [4] was 46.1% and the viability, T/C (second compound 0.0949 µM, first compound 0.000316 µM) was 55.9%. The viability, T/C (second compound 0.0949 µM, first compound 0.001 µM) was 55.1%, the viability, T/C [5] was 69.4% and the viability, T/C [6] was 59.3%. For the same compound, the viability, T/C [7] was 65%, the viability, T/C [8] was 65.8% and the viability, T/C (second compound 0.3 µM, first compound 0.000316 µM) was 58.5%. It also gave a viability, T/C (second compound 0.3 µM, first compound 0.001 µM) of 44.1%, a viability, T/C [9] of 58.8% and a viability, T/C [10] of 65.8%. It also gave a viability, T/C [11] of 48.8%, a viability, T/C [12] of 71.4% and a viability, T/C (second compound 0.949 µM, first compound 0.000316 µM) of 58.5%. The viability, T/C (second compound 0.949 µM, first compound 0.001 µM) was 66.8%, the viability, T/C [13] was 74% and the viability, T/C [14] was 67.5%. For the same compound, the viability, T/C [15] was 62.5%, the viability, T/C [16] was 77.4% and the viability, T/C (second compound 3 µM, first compound 0.000316 µM) was 84.7%. For the same compound, the viability, T/C (second compound 3 µM, first compound 0.001 µM) was 109%, the viability, T/C [17] was 83.1% and the viability, T/C [18] was 113%. The viability, T/C [19] was 92.8% and the viability, T/C [20] was 91.7%.
